Patent US20240083946A1, “SELF-ASSEMBLING PEPTIDES, NANOFIBERS, AND METHODS OF USE” (The Board of Regents of the University of Oklahoma, priority 2021, published 2024)

System: OVCAR-8 ovarian cancer cells
Experiment: Toxicity of peptide sets and individual peptides to OVCAR-8 cells (relative ATP, live/dead imaging)
Assay type: cell-based
Conditions: 6 hours, FIGS. 6A-B
Description: Image analysis indicated green cells were living and red cells were dead (color not shown).
Incubation of the peptides with OVCAR-8 ovarian cancer cells were incubated with the peptides of the [AA], [II], [WW] peptide sets. […] Red fluorescence (ethidium homodimer-1) was associated with loss of plasma membrane integrity whereas the green fluorescence correlated with intracellular esterase activity of metabolically active cells (color not shown in figures). Pyroptosis is a newly identified cell death modality characterized by the formation of large bubbles on the plasma membrane and cell swelling. Recently pyroptosis has been classified as a regulated cell death (RCD) by Nomenclature Committee on Cell Death (NCCD). Peptide-treated OVCAR-8 cells indicated pyroptotic morphology. One of the pathways mediating pyroptosis is through cleavage of caspase-3.

KFFWWK
toxicity to OVCAR-8 cells: toxicity
